Holding throughout (type): in vivo
Experiment [1] relates to left ventricular dp/dt max. The experiment can be described thus: Left ventricular dp/dt max after injection into left coronary artery of anesthetized dogs. As to conditions: intracoronary injection, anesthetized dog; dose to increase dp/dt max by 30% of effect of isoproterenol (0.1 μg). The procedure:
(§1) Dogs of either sex were anesthetized with sodium pentobarbital (30 mg/kg i.v.). Heparin (500 U/kg i.v.) was administered before making preparation. Under artificial respiration (18 strokes/min, 20 ml/kg tidal volume), left ventricular dp/dt max, and left coronary blood flow were measured (1). Test compounds were injected into the left coronary artery in a volume of 10 or 30 μl. The effects of compounds on coronary blood flow were observed and presented generally as ED50, a dose required to increase coronary blood flow by a half of the effects of nifedipine (3 μg). Similarly, the effects on dp/dt max were observed and shown as ED30, a dose required to increase dp/dt max by 30% of the efffects of isoproterenol (0.1 μg).

The test system of another experiment is left coronary blood flow. The experiment can be described thus: Coronary blood flow after injection into left coronary artery of anesthetized dogs. Particulars: intracoronary injection, anesthetized dog; for Increase in CBF ED50: dose to increase CBF by half of the effect of nifedipine (3 μg); for Decrease in CBF ED-50: dose to decrease CBF by 50% from basal value. The procedure:
as §1

The test system of the next experiment is arterial blood pressure. Description: Hypotensive effects in the anesthetized dog. Particulars: Canis lupus familiaris, iv, read-out: Hypotensive effect; for inhibition in vivo at 0.01 mg/kg: 10 μg/kg; for inhibition in vivo at 0.03 mg/kg: 30 μg/kg. The procedure:
(§2) Adult mongrel dogs were anesthetized with sodium pentobarbital (30 mg/kg i.v.). Effects of test compounds on arterial blood pressure, coronary arterial blood flow, vertebral blood flow, renal blood flow, left ventricular dp/dt max (dp/dt max) and urine volume were observed. The compounds were administered intravenously (i.v.) or intraduodenally (i.d.).

Experiment [2] deals with coronary arterial blood flow. Description: Coronary vasodilating effects in the anesthetized dog. As to conditions: Canis lupus familiaris, iv, read-out: Increase in coronary blood flow; for change in vivo at 0.01 mg/kg: 10 μg/kg; for change in vivo at 0.3 mg/kg: 300 μg/kg; for change in vivo at 0.03 mg/kg: 30 μg/kg. Here is the method: as §2
Experiment [3] concerns left ventricular dp/dt max. The experiment can be described thus: Cardiotonic effects in the anesthetized dog. Particulars: Canis lupus familiaris, iv, 300 μg/kg; read-out: Increase in dp/dt max. Here is the method:
as §2

As for `CC1=C(C(=O)OC(C)C)C(c2cccc(F)c2Cl)n2nccc2N1` (stereo not shown) [(33), 7-(2-Chloro-3-fluorophenyl)-6-isopropoxycarbonyl-5-methyl-4,7-dihydropyrazolo[1,5-a]pyrimidine], in experiment [1], the “Increase in dp/dt max ED30” value was over 30 µg. Besides, the “Increase in CBF ED50” value with left coronary blood flow was found to be 1.4 µg.

For the compound `CC1=C(C(=O)OC(C)C)C(c2ccccc2F)n2ncc(C#N)c2N1` (stereo not shown) [(29), 3-Cyano-7-(2-fluorophenyl)-6-isopropoxycarbonyl-5-methyl-4,7-dihydropyrazolo[1,5-a]pyrimidine], the “Increase in dp/dt max ED30” value in experiment [1] was over 30 µg. The “Increase in CBF ED50” value with left coronary blood flow turned out to be 1.0 µg.

On to `CCOC(=O)C1=C(C)Nc2c(C#N)cnn2C1c1ccccc1C(F)(F)F` (stereo not shown) [(14), 3-Cyano-6-ethoxycarbonyl-5-methyl-7-(2-trifluoromethylphenyl)-4,7-dihydropyrazolo[1,5-a]pyrimidine], for which the “Increase in dp/dt max ED30” value in experiment [1] was over 100 µg. In the experiment with left coronary blood flow, the “Increase in CBF ED50” value was found to be 1.6 µg. The inhibition in vivo at 0.01 mg/kg in the experiment on arterial blood pressure was determined as 20%. Further, in experiment [2], the change in vivo at 0.01 mg/kg came out at 54%.

As to `CC1=C(C(=O)OC(C)C)C(c2cccc(F)c2F)n2ncc(C#N)c2N1` (stereo not shown) [(35), 3-Cyano-7-(2,3-difluorophenyl)-6-isopropoxycarbonyl-5-methyl-4,7-dihydropyrazolo[1,5-a]pyrimidine], the “Increase in dp/dt max ED30” value in experiment [1] is over 30 µg. Further, the “Increase in CBF ED50” value with left coronary blood flow came out at 0.28 µg.

Take `CC1=C(C(=O)OC(CN2CCCCC2)c2ccccc2)C(c2cccc([N+](=O)[O-])c2)n2ccnc2N1` (stereo not drawn) [(34), 1-Phenyl-2-piperidinoethyl 7-methyl-5-(3-nitrophenyl)-5,8-dihydroimidazo[1,2-a]pyrimidine-6-carboxylate (β-form of diastereomer)]: in experiment [1], the “Increase in dp/dt max ED30” value is over 30 µg. Further, in the experiment on left coronary blood flow, the “Increase in CBF ED50” value was 10.0 µg.

In the case of `CC1=C(C(=O)OC(CN2CCCCC2)c2ccccc2)C(c2cccc([N+](=O)[O-])c2)n2nccc2N1` (stereo not drawn) [(2), 1-Phenyl-2-piperidinoethyl 5-methyl-7-(3-nitrophenyl)-4,7-dihydropyrazolo[1,5-a]pyrimidine-6-carboxylate (β-form of diastereomer)], the “Increase in dp/dt max ED30” value in experiment [1] is over 10 µg. The “Increase in CBF ED50” value with left coronary blood flow turned out to be 1.5 µg. For the same compound, the inhibition in vivo at 0.03 mg/kg in the experiment with arterial blood pressure turned out to be 37%.

On to `CCC(CC)OC(=O)C1=C(C)Nc2ccnn2C1c1ccccc1C(F)(F)F` (stereo not shown) [(22), 5-Methyl-6-(3-pentyloxycarbonyl)-7-(2-trifluoromethylphenyl)-4,7-dihydropyrazolo[1,5-a]pyrimidine], for which the figures for the change in vivo at 0.3 mg/kg in experiment [3] and in experiment [2] were 24% and 107%, respectively.

As for `CCOC(=O)C1=C(C)Nc2ccnn2C1c1ccccc1C(F)(F)F` (single isomer, unassigned) [(20), 6-Ethoxycarbonyl-5-methyl-7-(2-trifluoromethylphenyl)-4,7-dihydropyrazolo[1,5-a]pyrimidine, optical isomer (-)], in the experiment with arterial blood pressure, the inhibition in vivo at 0.01 mg/kg was determined as 22%.

Consider `CCOC(=O)C1=C(C)Nc2ccnn2C1c1ccccc1Cl` (stereo not shown) [(4), 7-(2-Chlorophenyl)-6-ethoxycarbonyl-5-methyl-4,7-dihydropyrazolo[1,5-a]pyrimidine], for which the change in vivo at 0.3 mg/kg in experiment [2] came out at 33%.

With `CC1=C(C(=O)OCC(C)C)C(c2ccccc2C(F)(F)F)n2nccc2N1` (stereo not shown) [(12), 6-Isobutoxycarbonyl-5-methyl-7-(2-trifluoromethylphenyl)-4,7-dihydropyrazolo[1,5-a]pyrimidine], the “Increase in dp/dt max ED30” value in experiment [1] was over 300 µg. Besides, the “Increase in CBF ED50” value in the experiment on left coronary blood flow amounted to 1.8 µg.

Regarding `CC1=C(C(=O)OCC2CC2)C(c2ccccc2C(F)(F)F)n2ncc(C#N)c2N1` (stereo not shown) [(7), 3-Cyano-6-cyclopropylmethyloxycarbonyl-5-methyl-7-(2-trifluoromethylphenyl)-4,7-dihydropyrazolo[1,5-a]pyrimidine], the “Increase in dp/dt max ED30” value in experiment [1] is over 30 µg. In addition, the “Increase in CBF ED50” value with left coronary blood flow was 2.0 µg. Moreover, the inhibition in vivo at 0.01 mg/kg in the experiment on arterial blood pressure was determined as 20%. In experiment [2], the change in vivo at 0.01 mg/kg was 52%.

Consider `COc1ccc(CCOC(=O)C2=C(C)Nc3ccnn3C2c2ccccc2C(F)(F)F)cc1OC` (stereo not shown) [(19), 6-[2-(3,4-Dimethoxyphenyl)ethyl]oxycarbonyl-5-methyl-7-(2-trifluoromethylphenyl)-4,7-dihydropyrazolo[1,5-a]pyrimidine], for which the “Increase in dp/dt max ED30” value in experiment [1] was 14 µg. The “Decrease in CBF ED-50” value in the experiment on left coronary blood flow amounted to 1.2 µg.

For the compound `CC1=C(C(=O)OC(C)C)C(c2cccc(Cl)c2Cl)n2nccc2N1` (stereo not shown) [(28), 7-(2,3-Dichlorophenyl)-6-isopropoxycarbonyl-5-methyl-4,7-dihydropyrazolo[1,5-a]pyrimidine], in the experiment with arterial blood pressure, the inhibition in vivo at 0.03 mg/kg turned out to be 29%. Moreover, the change in vivo at 0.03 mg/kg in experiment [2] is 53%.

As for `CC1=C(C(=O)OC(C)C)C(c2cc(F)ccc2F)n2nccc2N1` (stereo not shown) [(32), 7-(2,5-Difluorophenyl)-6-isopropoxycarbonyl-5-methyl-4,7-dihydropyrazolo[1,5-a]pyrimidine], the “Increase in dp/dt max ED30” value in experiment [1] is 93 µg. Besides, the “Increase in CBF ED50” value with left coronary blood flow was 8 µg.

As to `COCC(OC(=O)C1=C(C)Nc2ccnn2C1c1ccccc1C(F)(F)F)c1ccccc1` (stereo not drawn) [(8), 1-Phenyl-2-methoxyethyl 5-methyl-7-(2-trifluoromethylphenyl)-4,7-dihydropyrazolo[1,5-a]pyrimidine-6-carboxylate (β-form of diastereomer)], the change in vivo at 0.01 mg/kg in experiment [2] was 33%.

As for `CCOC(=O)C1=C(C)Nc2ccnn2C1c1ccccc1OC(F)F` (stereo not shown) [(18), 7-(2-Difluoromethoxyphenyl)-6-ethoxycarbonyl-5-methyl-4,7-dihydropyrazolo[1,5-a]pyrimidine], the change in vivo at 0.3 mg/kg in experiment [3] turned out to be 20%; in experiment [2], 89%.

Take `CCOC(=O)C1=C(CF)Nc2ccnn2C1c1ccccc1C(F)(F)F` (stereo not shown) [(24), 6-Ethoxycarbonyl-5-fluoromethyl-7-(2-trifluoromethylphenyl)-4,7-dihydropyrazolo[1,5-a]pyrimidine]: the “Increase in dp/dt max ED30” value in experiment [1] was determined as 86 µg. For the same compound, in the experiment with left coronary blood flow, the “Decrease in CBF ED-50” value was over 300 µg.

Regarding `CCOC(=O)C1=C(C)Nc2c(Cl)cnn2C1c1ccccc1C(F)(F)F` (stereo not shown) [(16), 3-Chloro-6-ethoxycarbonyl-5-methyl-7-(2-trifluoromethylphenyl)-4,7-dihydropyrazolo[1,5-a]pyrimidine], in the experiment on arterial blood pressure (300 μg/kg), the inhibition in vivo at 0.3 mg/kg was 29%. The change in vivo at 0.3 mg/kg in experiment [2] is 113%.

As for `CC1=C(C(=O)OCC2CC2)C(c2ccccc2C(F)(F)F)n2nccc2N1` (stereo not shown) [(6), 6-Cyclopropylmethyloxycarbonyl-5-methyl-7-(2-trifluoromethylphenyl)-4,7-dihydropyrazolo[1,5-a]pyrimidine], the change in vivo at 0.01 mg/kg in experiment [2] was found to be 45%.

As to `CCOC(=O)C1=C(CO)Nc2ccnn2C1c1ccccc1C(F)(F)F` (stereo not shown) [(5), 6-Ethoxycarbonyl-5-hydroxymethyl-7-(2-trifluoromethylphenyl)-4,7-dihydropyrazolo[1,5-a]pyrimidine], the change in vivo at 0.3 mg/kg in experiment [3] amounted to 20%; in experiment [2] it was 43%.

As for `CC1=C(C(=O)OC(C)C)C(c2ccccc2Cl)n2nccc2N1` (stereo not shown) [(26), 7-(2-Chlorophenyl)-6-isopropoxycarbonyl-5-methyl-4,7-dihydropyrazolo[1,5-a]pyrimidine], the “Increase in dp/dt max ED30” value in experiment [1] is 133 µg. The “Increase in CBF ED50” value in the experiment on left coronary blood flow is 13 µg. The change in vivo at 0.03 mg/kg in experiment [2] was 33%.

Turning to `CCOC(=O)C1=C(C)Nc2ccnn2C1c1ccccc1SCc1ccccc1` (stereo not shown) [(17), 7-(2-Benzylthiophenyl)-6-ethoxycarbonyl-5-methyl-4,7-dihydropyrazolo[1,5-a]pyrimidine], the “Increase in dp/dt max ED30” value in experiment [1] was determined as 6.7 µg. Further, the “Decrease in CBF ED-50” value in the experiment on left coronary blood flow was found to be 1.1 µg.

In the case of `CC1=C(C(=O)OC(C)C)C(c2cccc(F)c2F)n2nccc2N1` (stereo not shown) [(31), 7-(2,3-Difluorophenyl)-6-isopropoxycarbonyl-5-methyl-4,7-dihydropyrazolo[1,5-a]pyrimidine], the “Increase in dp/dt max ED30” value in experiment [1] is over 30 µg. The “Increase in CBF ED50” value with left coronary blood flow was 1.4 µg.

As to `CCOC(=O)C1=C(C)Nc2nnnn2C1c1ccccc1C(F)(F)F` (stereo not shown) [(21), 6-Ethoxycarbonyl-5-methyl-7-(2-trifluoromethylphenyl)-4,7-dihydrotetrazolo[1,5-a]pyrimidine], the change in vivo at 0.3 mg/kg in experiment [2] amounted to 63%.

For the origin of these results see patent publication US4918074A, “Polyazaheterocycle compounds” (Yoshitomi Pharmaceutical Industries, Ltd., priority 1984, dated 1990).
